From ChEMBL document CHEMBL1147160, “Bioactive constituents from the marine crinoid Himerometra magnipinna” (2007)
Active and inactive are the calls of the source. No cut-off for these calls is given here.

Legend:
Streptomyces [1] = assay: Inhibition of hyphae formation in Streptomyces 85E at 40 ug/disk after 30 hrs by HF1 assay; format: functional, organism-based
Streptomyces [2] = assay: Inhibition of hyphae formation in Streptomyces 85E at 80 ug/disk after 30 hrs by HF1 assay; format: functional; conditions: for zone of inhibition at 80 µg/disc: read-out: IZ

For `CCCc1cc(O)c2c(c1)C(C1c3cc(O)cc(O)c3C(=O)c3c(O)cc(C(O)CC)cc31)c1cc(O)cc(O)c1C2=O` (stereo not given), the Activity (Streptomyces [1]) was “inactive” and the zone of inhibition at 80 µg/disc (Streptomyces [2]) was 11 mm.
In the case of `COC1=C(Br)[C@H](O)[C@@]2(C=C1Br)CC(C(=O)NCCCCNC(=O)C1=NO[C@]3(C=C(Br)C(OC)=C(Br)[C@@H]3O)C1)=NO2`, the Activity (Streptomyces [2]) is reported as “inactive”.
In the case of `COC1=C(Br)[C@H](O)[C@@]2(C=C1Br)CC(C(=O)NCCC(O)CCNC(=O)C1=NO[C@]3(C=C(Br)C(OC)=C(Br)[C@@H]3O)C1)=NO2`, the Activity (Streptomyces [1]) is reported as “inactive” and the zone of inhibition at 80 µg/disc (Streptomyces [2]) is reported as 11 mm.
